Assay results published in patent publication US5519042A, “Method of treating hyperproliferative vascular disease” (priority 1994, dated 1996).

Tested on: injured carotid arteries
Assay: Effect on intimal thickening in injured carotid arteries (balloon catheter injury, morphometry)
Format: in vivo, male Sprague-Dawley (SD) rats
Conditions: for Intima Percent (±S.E.): mean ± standard error, untreated injured control 46.06 ± 16.36
Protocol: The effect of N-(4-trifluoromethylphenyl)-5-methylisoxazole-carboxamide (compound I) on hyperproliferative vascular disease was established in an in vivo standard pharmacological test procedure that emulates the hyperproliferative effects observed in mammals that are undergoing intimal smooth muscle proliferation and are therefore developing restenosis. Cyclosporin A was also evaluated in these test procedure for the purpose of comparison.
Compound 1 was also evaluated in an in vivo standard pharmacological test procedure that emulates the vascular injury suffered and restenosis that develops following percutaneous transluminal coronary angioplasty in humans.
Intimal smooth muscle proliferation was produced by balloon catheter injury to the left carotid artery of groups of 6, male Sprague-Dawley (SD) rats. […] A balloon catheter (2 French Fogarty, Edwards Laboratories, Santa Anna, Calif.) was passed through the external carotid artery into the aorta. The balloon was then inflated with an amount of water sufficient to distend the common carotid artery and was then pulled back to the external carotid artery. The inflation and pull back were repeated three times. This procedure leads to complete denudation of the endothelium throughout the common carotid artery, and also some injury typically occurs to the medial smooth muscle cells.
During a 17-days period (3 days before operation to 13 days after operation), these rats were divided into 2 groups of 6 animals and treated daily with compound 1 (20 mg/kg/day, intraperitoneal (i.p.)) or cyclosporin A (3 mg/kg/day; i.p.).
An injured group not treated with any drug was used as an injured control to establish the amount of intimal thickening in the absence of treatment. The right carotid was used as an uninjured control in all groups.
After the 14 day post-operative period, the rats were sacrificed, the carotids removed. The mean areas of the intima, media and total blood vessel wall were measured by morphometry. The injured artery was also examined using histopathologic assays. Results are presented as an intima percent, expressed as follows: [formula]

| Compound | decrease in the mean percentage intimal thickening compared with the untreated injured control group (20 mg/kg/day i.p.) [%] | Intima Percent (±S.E.) (20 mg/kg/day i.p., 3 days before to 13 days after operation) [%] | reduction in intimal thickening (in words) (3 mg/kg/day i.p.) | Intima Percent (±S.E.) (3 mg/kg/day i.p., 14 days) [%] |
| --- | --- | --- | --- | --- |
| Cc1oncc1C(=O)Nc1ccc(C(F)(F)F)cc1 [Compound 1, N-(4-trifluoromethylphenyl)-5-methylisoxazole-4-carboxamide] | 83 | 7.88 ± 7.88 | – | – |
| Cyclosporin A | – | – | failed to produce any meaningful reduction in intimal thickening | 39.39 ± 26.06 |
